≈ marks a conversion by molar mass, not a printed value. A value given as a limit tells only on which side of the number the result lay.

For this data set the following is noted: buffer; pH 7.4; 200.0 µM.
`Cc1cc(C)cc(NC(=O)N2CCc3ccccc3C2)c1` came in with a solubility (kinetic) of 1.3 µg/mL (≈ 4.64 µM). The figure for `COc1ccc(NC(=O)C2CC(c3ccc(Cl)cc3)=NO2)cc1` (centres undefined) is under 0.4 µg/mL. The figure for `COc1ccccc1C(C#N)c1cccc(Cl)n1` (centres undefined) is 38 µg/mL (≈ 147 µM); for `COc1ccc(NC(=O)C2CC(=O)N=C(N)S2)cc1` (centres undefined) it is over 41.9 µg/mL; for `Cc1ccc(C)c(NC(=S)N(CCc2ccncc2)C(C)C)c1` it is over 49.1 µg/mL.

With `O=C(Nc1nc2c(Cl)cccc2s1)C1CC1`, the solubility (kinetic) was 1.3 µg/mL (≈ 5.14 µM).

In turn, `O=C(CN1CCCCC1)N1CCc2ccccc21` gave a solubility (kinetic) of 36.6 µg/mL (≈ 150 µM). The figure for `CN1CCN(c2nc3ccccc3o2)CC1` is over 32.6 µg/mL. The figure for `CN(C)CCCNC(=O)C(=O)NCC1CCCO1` (centres undefined) is over 38.6 µg/mL.

`COc1ccccc1C1CCN(Cc2c(C)[nH]c3ccccc23)CC1` registered a kinetic solubility of over 50.2 µg/mL. As for `Cc1cccc(CNCCc2c[nH]c3ccccc23)c1.O=C(O)C(=O)O`, the kinetic solubility is over 53.2 µg/mL. In the case of `O=C(Cc1ccsc1)NCc1ccccc1F`, the solubility (kinetic) was over 37.4 µg/mL. The compound `CC1(c2ccc(Cl)cc2)NC(=O)N(CN2CCOCC2)C1=O` (centres undefined) registered a kinetic solubility of over 48.6 µg/mL. The figure for `COc1ccc(NC(=O)CCc2nc3ccccc3[nH]2)cc1` is 5.3 µg/mL (≈ 17.9 µM).

The compound `COc1ccc(-c2cc(C(=O)OCC(=O)N3CCOCC3)c3ccccc3n2)cc1` showed a solubility (kinetic) of 26.3 µg/mL (≈ 64.7 µM). The figure for `Nc1ccccc1C(=O)NCCCN1CCN(c2cccc(Cl)c2)CC1` is 12.9 µg/mL (≈ 34.6 µM). The figure for `Cc1cc(C(=O)NC2CCCCC2)on1` is over 31.2 µg/mL; for `COc1ccccc1C(=O)Nc1onc(C)c1C#N` it is over 38.6 µg/mL. The figure for `O=C(NC1CCCCC1)C(=S)NCc1ccccc1` is 1.4 µg/mL (≈ 5.07 µM); for `O=C(NC1CCCc2ccccc21)c1ccc(F)cc1F` (centres undefined) it is 10.9 µg/mL (≈ 37.9 µM); for `O=C1OCC(c2ccc(Cl)s2)=C1c1ccccc1[N+](=O)[O-]` it is 22.3 µg/mL (≈ 69.3 µM). In turn, `CCOC(=O)c1cc(S(=O)(=O)NCc2ccco2)cn1C` yielded a kinetic solubility of over 46.9 µg/mL. The figure for `CSc1ncccc1C(=O)Nc1ccc2c(c1)OCCO2` is 15.7 µg/mL (≈ 51.9 µM). Consider `CC1C(=O)N2CCCc3cc(NS(C)(=O)=O)cc1c32` (centres undefined), for which the kinetic solubility was 40.3 µg/mL (≈ 144 µM). The figure for `COc1ccc(C)cc1NC(=O)c1ccc(OCc2c(C)noc2C)cc1` is 0.9 µg/mL (≈ 2.46 µM); for `Cc1nc(C)c(C(=O)OCC(=O)N(C)c2ccccc2)s1` it is over 45.7 µg/mL; for `COC(=O)c1sc(NC(=O)c2c(-c3ccccc3)noc2C)nc1C` it is 0.8 µg/mL (≈ 2.24 µM). The figure for `CNC(=O)CN1C(=O)NC(c2ccccc2)(c2ccccc2)C1=O` is over 48.5 µg/mL; for `Cn1c(=O)c2c(ncn2CC(O)CO)n(C)c1=O` (centres undefined) it is over 38.1 µg/mL; for `Nc1nc(NCCO)nc(N2CCCCCC2)c1[N+](=O)[O-]` it is over 44.4 µg/mL.

`COC(=O)c1cc(C(=O)NC(C)(C)CC(C)(C)C)cc([N+](=O)[O-])c1` gave a solubility (kinetic) of 17.8 µg/mL (≈ 52.9 µM). The figure for `N#Cc1ccc(OCC(O)CS(=O)(=O)c2ccc(F)cc2)cc1` (centres undefined) is over 50.3 µg/mL. The figure for `CN1CCN(C(=O)CNC(=O)c2cccs2)CC1` is over 40.1 µg/mL; for `COc1ccccc1C(=O)NS(=O)(=O)c1ccc(C)cc1` it is over 45.8 µg/mL.

Regarding `CC(=O)N1CCN(CC(O)Cn2c3ccccc3c3ccccc32)CC1` (centres undefined), the solubility (kinetic) is over 52.7 µg/mL. The figure for `CC1CCC(NC(=S)NCCN(C)C)CC1` (centres undefined) is 25.6 µg/mL (≈ 105 µM).

Take `COc1ccccc1N1CCN(CC(=O)c2c[nH]c3ccccc23)CC1`: the solubility (kinetic) worked out at 6.6 µg/mL (≈ 18.9 µM). The figure for `N#Cc1ccc2c(c1)NC(=O)C1CCCN21` (centres undefined) is 27.8 µg/mL (≈ 130 µM); for `NC(=S)Cc1ccc(Cl)cc1Cl` it is 30.9 µg/mL (≈ 140 µM). The figure for `CC(=O)CC(=O)Nc1ccc(C(N)=O)cc1` is over 33 µg/mL. The figure for `Cn1cc(C=C2C(=O)OC3(CCCCC3)OC2=O)c2ccccc21` is under 0.7 µg/mL; for `CC1CCCN(S(=O)(=O)c2ccc(Cl)s2)C1` (centres undefined) it is 10.8 µg/mL (≈ 38.6 µM). Take `COc1ccc(NS(=O)(=O)c2ccc3c(c2)CCC(=O)N3)cc1O`: the solubility (kinetic) is over 52.3 µg/mL.

Take `O=C(OCC(=O)N1CCN(C(=O)c2ccco2)CC1)c1ccc(Cl)nc1`: the kinetic solubility was over 56.7 µg/mL.

`CCCc1cc(=O)oc2cc(OCC(=O)N3CCC(C(N)=O)CC3)ccc12` gave a kinetic solubility of over 55.9 µg/mL. The figure for `Cc1cccc(N2CC(C(=O)NC3CCCCCC3)CC2=O)c1C` (centres undefined) is over 49.3 µg/mL. The figure for `CC(C)(C)c1ccc(C(=O)NC(=S)N2CCCC2)cc1` is 7.2 µg/mL (≈ 24.8 µM); for `Cc1cccc(NC(=O)COC(=O)[C@@H]2CCCN2C(=O)c2cccs2)c1` it is 2.8 µg/mL (≈ 7.52 µM); for `CCN(CC(=O)NCc1ccc(F)cc1)C(=O)COc1ccccc1[N+](=O)[O-]` it is over 58.4 µg/mL. As to `Cc1cccc(N2C(=O)NC(=O)/C(=C\C=C\c3ccco3)C2=O)c1`, the kinetic solubility is 39.2 µg/mL (≈ 122 µM). The compound `CC(OC(=O)c1ccc2ncsc2c1)C(=O)N1CCCC1` (centres undefined) registered a kinetic solubility of 39.4 µg/mL (≈ 129 µM). The figure for `O=c1onc(-c2ccccc2)c2ccccc12` is 27.7 µg/mL (≈ 124 µM); for `CC(C)c1onc(C(=O)N2CCC(C(N)=O)CC2)c1[N+](=O)[O-]` it is over 46.5 µg/mL; for `CCCNC(=O)NC(=O)CN1CCCC1c1ccc2c(c1)OCCO2` (centres undefined) it is over 52.1 µg/mL. `O=C1C2C3C=CC(C4CC34)C2C(=O)N1c1cccc2ccccc12` (centres undefined): the solubility (kinetic) came to 42.7 µg/mL (≈ 135 µM).

`Cc1csc(/N=C/N(C)C)c1C#N`: the solubility (kinetic) is 28 µg/mL (≈ 145 µM). The figure for `O=C(O)C1C2CCC(C2)C1C(=O)Nc1cccc([N+](=O)[O-])c1` (centres undefined) is 13.9 µg/mL (≈ 45.7 µM); for `CCC(=O)N1CC(=O)Nc2ccc(F)cc2C1c1ccc(F)cc1` (centres undefined) it is over 49.6 µg/mL; for `COc1cccc(C(=O)c2c(C)c(CCC#N)n3ccccc23)c1` it is 43.5 µg/mL (≈ 137 µM). For `Nc1nc(NCCN2CCOCC2)nc(NCc2ccccc2)c1[N+](=O)[O-]`, the solubility (kinetic) is 12 µg/mL (≈ 32.1 µM). The figure for `Cc1ccc2oc(=O)n(CCOc3ccccc3C)c2c1` is under 0.6 µg/mL; for `CCOC(=O)C1=C(C)NC(C)=C(C(=O)OCC)C1C(=O)OCC(=O)NCc1ccco1` it is over 65.2 µg/mL; for `CN1CCN(CC(=O)NC(=O)NC2CCCCC2)CC1` it is over 42.4 µg/mL. The figure for `O=C1CSC(=Nc2ccc(Cl)cc2)N1` is 33.7 µg/mL (≈ 149 µM); for `Nc1ccc(Cl)c(S(=O)(=O)Nc2ccccc2Cl)c1` it is over 47.6 µg/mL; for `Fc1ccc2c(c1)C1OCCCC1C(c1ccccc1)N2` (centres undefined) it is under 0.6 µg/mL. Take `Cc1ccc(-c2nc(C#N)c(NCC3CCCO3)o2)cc1` (centres undefined): the kinetic solubility amounted to 37 µg/mL (≈ 131 µM). On to `O=C(O)Cc1ccc(S(=O)(=O)Nc2ccccc2C(=O)O)cc1`, for which the kinetic solubility worked out at 43.4 µg/mL (≈ 129 µM). The figure for `O=C(Cc1ccc(Br)cc1)OCC(=O)N1CCOCC1` is over 51.3 µg/mL; for `Cc1ccccc1NC(=O)Cn1c(=O)oc2ccccc21` it is 14.4 µg/mL (≈ 51 µM); for `Cc1ccccc1OCC(=O)O/N=C(\N)c1ccncc1` it is 28.7 µg/mL (≈ 101 µM).

Compound `CCc1ccccc1NC(=S)N(Cc1cccs1)C1CCCC1` returned a solubility (kinetic) of 13.9 µg/mL (≈ 40.3 µM). The figure for `COc1ccc(C2(c3ccc(OC)cc3)NC(=O)N(CC(=O)NC3CCS(=O)(=O)C3)C2=O)cc1` (centres undefined) is over 73.1 µg/mL. In turn, `Cl.O=C(CNCc1cccs1)NC12CC3CC(CC(C3)C1)C2` returned a solubility (kinetic) of 48.1 µg/mL. The figure for `O=C(O)c1cc(-c2ccc(Cl)c(Cl)c2)n(-c2ccccc2)n1` is over 50 µg/mL; for `Cn1c(=O)n(Cc2ccccc2Cl)c2ccccc21` it is over 40.9 µg/mL. Consider `CN(CC(=O)NC(=O)NC1CCCCC1)Cc1ccccc1`, for which the kinetic solubility was over 45.5 µg/mL.

Consider `Cc1onc(-c2ccccc2)c1C(=O)N1CCCC(C(F)(F)F)C1` (centres undefined), for which the solubility (kinetic) was found to be 42.7 µg/mL (≈ 126 µM). The figure for `CCN(c1ccccc1)S(=O)(=O)c1ccc(OC)c(NC(=O)c2ccc(=O)[nH]c2)c1` is 24.2 µg/mL (≈ 56.6 µM); for `O=C(NCc1ccccc1F)c1ccc2ccccc2n1` it is 20.9 µg/mL (≈ 74.6 µM); for `COc1cc(C(=O)Nc2cc(OC)c(OC)c(OC)c2)ccc1OCc1c(C)noc1C` it is 2.9 µg/mL (≈ 6.55 µM). The figure for `Cc1cccc(C)c1CC(=O)N1CCOCC1` is 34.6 µg/mL (≈ 148 µM); for `CC1CC(=O)Nc2ccccc2N1C(=O)Nc1ccccc1` (centres undefined) it is 30.2 µg/mL (≈ 102 µM). The figure for `Cc1ccc(OCc2cc(C(=O)N3CCCC3)no2)cn1` is over 43.1 µg/mL.

Take `CCOc1ccc(/C=C2\SC(=O)N(c3ccc(O)cc3)C2=O)cc1OC`: the kinetic solubility is under 0.8 µg/mL. The figure for `COc1ccc(S(=O)(=O)N2CCOCC2)cc1NC(=O)C1CC1` is over 51.1 µg/mL; for `O=C(Cn1cnc2ccccc21)Nc1cccc([N+](=O)[O-])c1` it is 42.8 µg/mL (≈ 144 µM); for `O=C(CN1CCOCC1)Nc1cc(C(F)(F)F)ccc1Cl` it is 39.2 µg/mL (≈ 121 µM). Turning to `Cc1nccn1CCC(=O)Nc1ccc(Cl)cc1`, the solubility (kinetic) was over 39.6 µg/mL. The figure for `Nc1nccnc1C(=O)OCC(=O)C12CC3CC(CC(C3)C1)C2` is 2.9 µg/mL (≈ 9.2 µM).

Turning to `O=C(NCc1cccnc1)/C(=C/c1ccccc1)NC(=O)c1ccccc1`, the solubility (kinetic) was over 53.6 µg/mL. On to `Cc1ccc(-c2nc3ccccn3c2C=O)cc1`, for which the kinetic solubility amounted to 8.5 µg/mL (≈ 36 µM). The compound `Cc1cc(C)nc(SCC(=O)c2ccc(Cl)cc2)n1` showed a solubility (kinetic) of 33.5 µg/mL (≈ 114 µM).

`CC1=NN(C(N)=S)C(C)(C)C1`: the solubility (kinetic) was over 25.7 µg/mL. The figure for `COc1ccc2[nH]c3c(=O)n(Cc4ccncc4)cnc3c2c1` is 7.3 µg/mL (≈ 23.8 µM); for `COc1ccccc1N1CCN(C(=O)c2cccs2)CC1` it is over 45.4 µg/mL. The figure for `N/C(=N\[N+](=O)[O-])N1CCN(C(=O)c2ccccc2)CC1` is over 41.6 µg/mL; for `CN(CC(=O)OCC(N)=O)S(=O)(=O)c1ccc(Cl)cc1` it is over 48.1 µg/mL. The figure for `O=C(NCc1cccc(C(F)(F)F)c1)c1ccc[nH]1` is over 40.2 µg/mL; for `CCCC(C)NC(=O)CN1C(=O)NC2(CCc3ccccc32)C1=O` (centres undefined) it is over 49.4 µg/mL; for `CCCNC(=O)CSc1nc(Cc2ccccc2)nc2ccccc12` it is 8.2 µg/mL (≈ 23.3 µM). The compound `CC(C)(C)c1ccc(C(=O)OCC(=O)NCc2ccco2)cc1` had a solubility (kinetic) of 39 µg/mL (≈ 124 µM).

As to `O=C(COc1cccnc1[N+](=O)[O-])c1c[nH]c2ccccc12`, the kinetic solubility stood at 4.3 µg/mL (≈ 14.5 µM).

Consider `CCS(=O)(=O)N1CCN=C1SC(C)c1ccccc1` (centres undefined), for which the solubility (kinetic) is 41.4 µg/mL (≈ 139 µM).

Usually solubility (kinetic) stands for solubility judged after dilution from a stock solution rather than from solid.

Source of the values: PubChem BioAssay AID1996.
